Experimental data as given in PubChem BioAssay (NCI).
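Cultured in 96-well plates, cells were exposed to test compound for 48 hours across five concentrations. Here, GI50 denotes the concentration required for 50% inhibition of growth. TGI denotes the concentration required for complete inhibition of growth.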

Experiments:
Assay in all cases: NCI tumour cell line growth inhibition, 48 h; in the data active = GI50 below about 0.43 µM; inactive = the rest
PC-3 prostate = test system: PC-3 prostate
TK-10 renal = test system: TK-10 renal
IGROV1 ovarian = test system: IGROV1 ovarian
SNB-75 CNS = test system: SNB-75 CNS
SR leukemia = test system: SR leukemia
SW-620 colon = test system: SW-620 colon
DU-145 prostate = test system: DU-145 prostate
MDA-MB-231 breast = test system: MDA-MB-231 breast
HCT-116 colon = test system: HCT-116 colon
KM12 colon = test system: KM12 colon
CAKI-1 renal = test system: CAKI-1 renal
NCI-H226 lung = test system: NCI-H226 lung
SF-268 CNS = test system: SF-268 CNS
SNB-19 CNS = test system: SNB-19 CNS
HOP-62 NSCLC = test system: HOP-62 NSCLC
SK-MEL-5 melanoma = test system: SK-MEL-5 melanoma
HOP-92 NSCLC = test system: HOP-92 NSCLC
HCT-15 colon = test system: HCT-15 colon
LOX IMVI melanoma = test system: LOX IMVI melanoma
UACC-62 melanoma = test system: UACC-62 melanoma
SK-OV-3 ovarian = test system: SK-OV-3 ovarian
UACC-257 melanoma = test system: UACC-257 melanoma
BT-549 breast = test system: BT-549 breast
MOLT-4 leukemia = test system: MOLT-4 leukemia
NCI/ADR-RES ovarian = test system: NCI/ADR-RES ovarian
RPMI-8226 leukemia = test system: RPMI-8226 leukemia
SF-295 CNS = test system: SF-295 CNS
NCI-H23 lung = test system: NCI-H23 lung
SN12C renal = test system: SN12C renal
UO-31 renal = test system: UO-31 renal
NCI-H522 lung = test system: NCI-H522 lung
HL-60(TB) leukemia = test system: HL-60(TB) leukemia
COLO 205 colon = test system: COLO 205 colon
OVCAR-4 ovarian = test system: OVCAR-4 ovarian
MDA-MB-435 = test system: MDA-MB-435
MCF7 breast = test system: MCF7 breast
MALME-3M melanoma = test system: MALME-3M melanoma
T-47D breast = test system: T-47D breast
OVCAR-8 ovarian = test system: OVCAR-8 ovarian
SK-MEL-28 melanoma = test system: SK-MEL-28 melanoma
A549 NSCLC = test system: A549 NSCLC
M14 melanoma = test system: M14 melanoma
786-0 renal = test system: 786-0 renal
ACHN renal = test system: ACHN renal
NCI-H460 lung = test system: NCI-H460 lung
HCC-2998 colon = test system: HCC-2998 colon
HS 578T breast = test system: HS 578T breast
EKVX NSCLC = test system: EKVX NSCLC
HT29 colon = test system: HT29 colon
SF-539 CNS = test system: SF-539 CNS
RXF 393 renal = test system: RXF 393 renal
OVCAR-5 ovarian = test system: OVCAR-5 ovarian
U251 CNS = test system: U251 CNS
A498 renal = test system: A498 renal
CCRF-CEM leukemia = test system: CCRF-CEM leukemia
K-562 leukemia = test system: K-562 leukemia
OVCAR-3 ovarian = test system: OVCAR-3 ovarian

NC1=NNC2(C(N)=N1)c1ccccc1-c1ccccc12
> 10 µM: TGI (PC-3 prostate) | TGI (TK-10 renal) | TGI (IGROV1 ovarian) | TGI (SNB-75 CNS) | TGI (SR leukemia) | TGI (SW-620 colon) | TGI (DU-145 prostate) | TGI (MDA-MB-231 breast) | TGI (HCT-116 colon) | TGI (KM12 colon) | TGI (CAKI-1 renal) | TGI (NCI-H226 lung) | TGI (SF-268 CNS) | TGI (SNB-19 CNS) | TGI (HOP-62 NSCLC) | TGI (SK-MEL-5 melanoma) | TGI (HOP-92 NSCLC) | TGI (HCT-15 colon) | TGI (LOX IMVI melanoma) | TGI (UACC-62 melanoma) | TGI (SK-OV-3 ovarian) | TGI (UACC-257 melanoma) | TGI (BT-549 breast) | TGI (MOLT-4 leukemia) | TGI (NCI/ADR-RES ovarian) | TGI (RPMI-8226 leukemia) | TGI (SF-295 CNS) | TGI (NCI-H23 lung) | TGI (SN12C renal) | TGI (UO-31 renal) | TGI (NCI-H522 lung) | TGI (HL-60(TB) leukemia) | TGI (COLO 205 colon) | TGI (OVCAR-4 ovarian) | TGI (MDA-MB-435) | TGI (MCF7 breast) | TGI (MALME-3M melanoma) | TGI (T-47D breast) | TGI (OVCAR-8 ovarian) | TGI (SK-MEL-28 melanoma) | TGI (A549 NSCLC) | TGI (M14 melanoma) | TGI (786-0 renal) | TGI (ACHN renal) | TGI (NCI-H460 lung) | TGI (HCC-2998 colon) | TGI (HS 578T breast) | TGI (EKVX NSCLC) | TGI (HT29 colon) | TGI (SF-539 CNS) | TGI (RXF 393 renal)

C=C(C)[C@@H]1CC[C@]2(C)[C@H](CC[C@@H]3[C@H]4[C@H]5OC[C@@]4(CCC5(C)C)CC[C@]32C)[C@@]1(C)CCCN
4.65 µM: TGI (COLO 205 colon)
3.89 µM: TGI (NCI/ADR-RES ovarian)
4.61 µM: TGI (HS 578T breast)
> 100 µM: TGI (CCRF-CEM leukemia)
3.33 µM: TGI (KM12 colon)
3.23 µM: TGI (ACHN renal)
3.15 µM: TGI (U251 CNS)
3.53 µM: TGI (NCI-H23 lung)
3.45 µM: TGI (MALME-3M melanoma)
7.86 µM: TGI (MOLT-4 leukemia)
3.22 µM: TGI (SF-295 CNS) | TGI (SF-539 CNS)
3.78 µM: TGI (OVCAR-4 ovarian)
3.8 µM: TGI (SF-268 CNS)
3.12 µM: TGI (UACC-62 melanoma) | TGI (BT-549 breast) | TGI (A498 renal)
3.54 µM: TGI (MDA-MB-231 breast)
3.36 µM: TGI (IGROV1 ovarian) | TGI (DU-145 prostate) | TGI (SK-MEL-28 melanoma)
3.24 µM: TGI (SNB-19 CNS) | TGI (MDA-MB-435)
3.29 µM: TGI (PC-3 prostate)
9.01 µM: TGI (K-562 leukemia)
3.55 µM: TGI (SK-MEL-5 melanoma)
3.07 µM: TGI (OVCAR-3 ovarian) | TGI (RXF 393 renal)
3.39 µM: TGI (NCI-H460 lung)
3.37 µM: TGI (A549 NSCLC)
2.76 µM: TGI (UO-31 renal)
3.1 µM: TGI (OVCAR-5 ovarian)
2.91 µM: TGI (HCC-2998 colon)
3.17 µM: TGI (786-0 renal)
3 µM: TGI (CAKI-1 renal)
2.99 µM: TGI (HCT-15 colon)
3.04 µM: TGI (MCF7 breast)
4.42 µM: TGI (HOP-62 NSCLC)
5.09 µM: TGI (RPMI-8226 leukemia)
3.11 µM: TGI (SNB-75 CNS)
active: GI50 (LOX IMVI melanoma) 0.0275 µM
3.2 µM: TGI (TK-10 renal) | TGI (SN12C renal)
3.58 µM: TGI (M14 melanoma)
inactive: GI50 (PC-3 prostate) 1.74 µM | GI50 (TK-10 renal) 1.55 µM | GI50 (IGROV1 ovarian) 1.8 µM | GI50 (SNB-75 CNS) 1.53 µM | GI50 (SW-620 colon) 1.77 µM | GI50 (OVCAR-5 ovarian) 1.71 µM | GI50 (DU-145 prostate) 1.86 µM | GI50 (MDA-MB-231 breast) 1.84 µM | GI50 (KM12 colon) 1.78 µM | GI50 (CAKI-1 renal) 1.62 µM | GI50 (U251 CNS) 1.67 µM | GI50 (SF-268 CNS) 1.81 µM | GI50 (SNB-19 CNS) 1.78 µM | GI50 (HOP-62 NSCLC) 2 µM | GI50 (SK-MEL-5 melanoma) 1.91 µM | GI50 (HOP-92 NSCLC) 1.37 µM | GI50 (HCT-15 colon) 1.59 µM | GI50 (UACC-62 melanoma) 1.71 µM | GI50 (UACC-257 melanoma) 1.88 µM | GI50 (BT-549 breast) 1.67 µM | GI50 (MOLT-4 leukemia) 2.79 µM | GI50 (NCI/ADR-RES ovarian) 1.95 µM | GI50 (RPMI-8226 leukemia) 2.05 µM | GI50 (SF-295 CNS) 1.78 µM | GI50 (NCI-H23 lung) 1.77 µM | GI50 (SN12C renal) 1.63 µM | GI50 (UO-31 renal) 1.42 µM | GI50 (A498 renal) 1.72 µM | GI50 (COLO 205 colon) 2.15 µM | GI50 (OVCAR-4 ovarian) 2.04 µM | GI50 (MDA-MB-435) 1.76 µM | GI50 (MCF7 breast) 1.57 µM | GI50 (MALME-3M melanoma) 1.77 µM | GI50 (T-47D breast) 1.88 µM | GI50 (SK-MEL-28 melanoma) 1.83 µM | GI50 (CCRF-CEM leukemia) 2.44 µM | GI50 (A549 NSCLC) 1.69 µM | GI50 (M14 melanoma) 1.79 µM | GI50 (786-0 renal) 1.67 µM | GI50 (K-562 leukemia) 2.25 µM | GI50 (ACHN renal) 1.84 µM | GI50 (NCI-H460 lung) 1.8 µM | GI50 (OVCAR-3 ovarian) 1.68 µM | GI50 (HCC-2998 colon) 1.49 µM | GI50 (HS 578T breast) 2.1 µM | GI50 (EKVX NSCLC) 1.81 µM | GI50 (SF-539 CNS) 1.78 µM | GI50 (RXF 393 renal) 1.64 µM
3.48 µM: TGI (SW-620 colon)
2.79 µM: TGI (HOP-92 NSCLC)
0.489 µM: TGI (LOX IMVI melanoma)
4.21 µM: TGI (T-47D breast)
3.73 µM: TGI (UACC-257 melanoma)
3.31 µM: TGI (EKVX NSCLC)
